Test results taken from patent US20170202854A1, “Method for Treatment of Primary Hormone Resistant Endometrial and Breast Cancers” (Lipoxen Technologies Limited, priority 2014, published 2017).
Read-outs that look alike come from different tables or passages of the source.

How the values were obtained:
[1] = system: human primary PR-negative endometrial cancer cells HEC-1B; experiment: Mouse model of primary PR-negative endometrial cancer (HEC-1B xenograft); type: in vivo, BNX nu/nu mice; conditions: mean±SD of 20 tumors, MA 10 mg/day i.p. 5 days/week, SC 0.3 mg/kg i.m. each alternate day
Procedure: Treatment was started on the next day after the injection and discontinued after 5 weeks. Cohorts (10 mice/group) received either:
1) Vehicle control group: vehicle only, 0.9% sodium chloride for injection i.m each alternate day and i.p. for 5 days/week. 2) MA only control group: megestrol acetate (MA) (10 mg/day) i.p. for 5 days/week.
Tumors were measured every week with vernier calipers. Tumor size was calculated using the formula: A (length)×B (width)×C (height)×0.5236.

[2] = system: secondary PR negative Ishikawa cells; experiment: Model of secondary PR-negative endometrial cancer (progestin-resistant Ishikawa xenograft); type: in vivo, MF-1 female nude mice; conditions: MPA 250 mg/kg/day i.p. 5 days per week, SC 0.3 mg/kg i.m. each alternate day
Procedure: to obtain the secondary progestin-resistant subclones of human endometrial cancer cells, initially progestin sensitive PR-positive effect parent Ishikawa cells were routinely cultured in DMEM/F12 medium supplemented with 5% fetal bovine serum and medroxyprogesterone acetate (MPA) with 2.5 μM increases in MPA concentration (1.0-10 μM) every 4 weeks at 37° C. in a humidified atmosphere of 5% CO2. When the surviving cells had grown to a high density but were still less than confluent, cells were subcloned using 0.02% EDTA and 0.25% trypsin prepared in Hanks' balanced salt solution. MPA-containing medium was replaced every 2-3 days. Cells proliferating in 10 μM MPA with the same doubling time as the initial Ishikawa cells proliferating in the medium without MPA, were considered as secondary progestin-resistant Ishikawa cells. […] 2×10^6 secondary PR negative Ishikawa cells were inoculated into the flanks of MF-1 female nude mice in 100 μl Matrigel.
1) Vehicle control group: vehicle only, −0.9% sodium chloride for injection i.m each alternate day and i.p. for 5 days per week. 2) MPA only control group: medroxyprogesterone acetate (MPA) (250 mg/kg/day) i.p. for 5 days per week.
Tumors were measured with vernier calipers weekly. Tumor volumes (mm^3) were calculated using the modified ellipsoid formula: (length (mm)×width (mm)^2)/2. The ratio (percentage) of “Tumor volume at day n” to “tumor volume at day “0” was calculated for each animal. At the end of the experiments (day 35) animals were euthanized.

MDA-MB-468 tumor cells = conditions: day 21, alone or with SC 6 mg/mouse i.m. twice a week
Procedure: The MDA-MB-468 (ATCC collection number ATCC® HTB-132, Neve et al., Cancer Cell 2006, 10:515-527) tumor cells (the xenograft of human primary ER-negative breast cancer) were maintained in vitro as a monolayer culture in L-15 medium supplemented with 10% heat inactivated fetal bovine serum, 100 U/ml penicillin and 100 μg/ml streptomycin, and L-glutamine (2 mM) at 37° C. in an atmosphere of 5% CO2 in air. The tumor cells were routinely subcultured twice weekly by trypsin-EDTA treatment. The cells growing in an exponential growth phase were harvested and counted for tumor inoculation.
BALB/c nude (Shanghai Sino-British SIPPR/BK Laboratory Animal Co., Ltd.), 6-8 weeks old female mice were inoculated subcutaneously at the right flank with MDA-MB-468 tumor cells (1×10^7) in 0.2 ml of PBS supplemented with BD Matrigel (1:1) for tumor development. The treatments were started on day 17 after tumor inoculation when the average tumor size reached approximately 170 mm^3. […] Each group consisted of 8 tumor-bearing mice.
Tumor size was measured twice weekly in two dimensions using a caliper, and the volume was expressed in mm3 using the formula: V=0.5 a×b2 where a and b are the long and short diameters of the tumor, respectively.
Significance level was assumed as 0.05.

[3] = TAM 50 mg/kg oral gavage every day
[4] = TAM 100 mg/kg oral gavage every day

## CC(=O)O[C@]1(C(C)=O)CC[C@H]2[C@@H]3C=C(C)C4=CC(=O)CC[C@]4(C)[C@H]3CC[C@@]21C [MA, megestrol acetate]
[1]; Week 1
  Tumor volume: 58 ± 16 mm^3
[1]; Week 2
  Tumor volume: 177 ± 19 mm^3
[1]; Week 3
  Tumor volume: 510 ± 66 mm^3
[1]; Week 4
  Tumor volume: 794 ± 111 mm^3
[1]; Week 5
  Tumor volume: 1383 ± 151 mm^3

## CC(=O)O[C@]1(C(C)=O)CC[C@H]2[C@@H]3C[C@H](C)C4=CC(=O)CC[C@]4(C)[C@H]3CC[C@@]21C [MPA, medroxyprogesterone acetate]
[2]; Day 7
  Tumor volume at day n/tumor volume at day "0", %, mean ± SEM: 170 ± 19%
[2]; Day 14
  Tumor volume at day n/tumor volume at day "0", %, mean ± SEM: 412 ± 36%
[2]; Day 21
  Tumor volume at day n/tumor volume at day "0", %, mean ± SEM: 512 ± 66%
[2]; Day 28
  Tumor volume at day n/tumor volume at day "0", %, mean ± SEM: 822 ± 89%
[2]; Day 35
  Tumor volume at day n/tumor volume at day "0", %, mean ± SEM: 1224 ± 99%

## CC/C(=C(\c1ccccc1)c1ccc(OCCN(C)C)cc1)c1ccccc1 [TAM, Tamoxifen]
MDA-MB-468 tumor cells; [3]
  TGI: −65%
  Tumor volume: 473 ± 59 mm^3
MDA-MB-468 tumor cells; [4]
  TGI: −1%
  Tumor volume: 355 ± 25 mm^3
